Assay [1] can be described thus: DRUGMATRIX: Serotonin (5-Hydroxytryptamine) 5-HT3 radioligand binding (ligand: [3H] GR-65630). To be noted: hek293; Not Active = under 50% inhibition at 10 µM. Type of assay: cell membranes, Membrane.
Assay [2] has as its target Platelet-activating factor receptor (Homo sapiens, UniProt P25105). Nature of the assay: biochemical. The format is tissue-based. To be noted: platelet. Further: in other assays of this panel Not Active means under 50% inhibition at 10 µM.
A further assay deals with Glycine receptor (Rattus norvegicus, UniProt P22771+P24524+P07727+P20781). The format is cell membranes, Wistar, Spinal cord, Membrane.
The next assay addresses Nitric oxide synthase 1 (Rattus norvegicus, UniProt P29476). Type of assay: tissue-based, Cerebellum.
The target of assay [3] is Kappa-type opioid receptor (Homo sapiens, UniProt P41145). Briefly: DRUGMATRIX: Opiate kappa (OP2, KOP) radioligand binding (ligand: [3H] Diprenorphine). Type of assay: cell membranes, HEK293, Membrane. The note with it: hek293; Not Active = under 50% inhibition at 10 µM.
Sequence of Kappa-type opioid receptor (P41145 whole entry): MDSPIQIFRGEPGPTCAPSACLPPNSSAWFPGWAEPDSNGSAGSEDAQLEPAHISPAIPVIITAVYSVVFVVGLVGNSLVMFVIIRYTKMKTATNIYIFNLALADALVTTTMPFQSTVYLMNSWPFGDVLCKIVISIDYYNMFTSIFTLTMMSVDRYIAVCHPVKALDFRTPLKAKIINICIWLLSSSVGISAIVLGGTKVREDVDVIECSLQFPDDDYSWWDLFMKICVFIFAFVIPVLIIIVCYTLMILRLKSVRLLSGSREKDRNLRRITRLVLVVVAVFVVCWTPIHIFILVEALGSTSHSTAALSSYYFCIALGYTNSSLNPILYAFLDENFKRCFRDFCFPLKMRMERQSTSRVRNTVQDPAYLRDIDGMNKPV
The target of assay [4] is Mitogen-activated protein kinase 1 (Homo sapiens, UniProt P28482). Nature of the assay: DRUGMATRIX: Protein Serine/Threonine Kinase, ERK2 enzyme inhibition (substrate: Myelin Basic Protein). Set-up: species or system Escherichia coli. The note with it: Not Active = under 50% inhibition at 10 µM.
Sequence of Mitogen-activated protein kinase 1 (P28482 whole entry): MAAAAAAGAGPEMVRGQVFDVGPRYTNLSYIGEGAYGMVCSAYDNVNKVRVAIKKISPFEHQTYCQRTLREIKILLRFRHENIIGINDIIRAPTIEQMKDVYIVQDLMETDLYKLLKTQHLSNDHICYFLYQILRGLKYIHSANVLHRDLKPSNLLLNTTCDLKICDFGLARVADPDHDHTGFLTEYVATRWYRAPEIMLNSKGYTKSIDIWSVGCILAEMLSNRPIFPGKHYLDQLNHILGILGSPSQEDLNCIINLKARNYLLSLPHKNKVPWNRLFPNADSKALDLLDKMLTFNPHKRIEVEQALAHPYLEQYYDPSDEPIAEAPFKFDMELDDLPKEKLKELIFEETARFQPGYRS
For assay [5], the target named is T1, C-C chemokine receptor type 4 (Homo sapiens, UniProt P51679). Further: in other assays of this panel Not Active means under 50% inhibition at 10 µM.
T1 sequence (P51679 whole entry): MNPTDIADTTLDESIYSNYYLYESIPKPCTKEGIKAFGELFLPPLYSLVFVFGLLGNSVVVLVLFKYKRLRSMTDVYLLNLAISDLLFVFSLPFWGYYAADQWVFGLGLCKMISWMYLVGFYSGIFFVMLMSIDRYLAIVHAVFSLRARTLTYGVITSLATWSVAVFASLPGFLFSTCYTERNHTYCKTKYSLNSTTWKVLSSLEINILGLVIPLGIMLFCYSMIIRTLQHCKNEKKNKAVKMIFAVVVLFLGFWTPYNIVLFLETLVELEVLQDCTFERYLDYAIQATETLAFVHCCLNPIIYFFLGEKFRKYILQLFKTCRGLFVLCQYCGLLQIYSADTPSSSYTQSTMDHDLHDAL
The format is cell membranes, Membrane. The note with it: chem-1.

Our source for the IC50 and Ki values is ChEMBL document CHEMBL1909046, “DrugMatrix in vitro pharmacology data”.

What is called IC50 is the concentration at which inhibition is half-maximal.

Molecules are shown by their SMILES.

Sequence of Nitric oxide synthase 1 (P29476 whole entry): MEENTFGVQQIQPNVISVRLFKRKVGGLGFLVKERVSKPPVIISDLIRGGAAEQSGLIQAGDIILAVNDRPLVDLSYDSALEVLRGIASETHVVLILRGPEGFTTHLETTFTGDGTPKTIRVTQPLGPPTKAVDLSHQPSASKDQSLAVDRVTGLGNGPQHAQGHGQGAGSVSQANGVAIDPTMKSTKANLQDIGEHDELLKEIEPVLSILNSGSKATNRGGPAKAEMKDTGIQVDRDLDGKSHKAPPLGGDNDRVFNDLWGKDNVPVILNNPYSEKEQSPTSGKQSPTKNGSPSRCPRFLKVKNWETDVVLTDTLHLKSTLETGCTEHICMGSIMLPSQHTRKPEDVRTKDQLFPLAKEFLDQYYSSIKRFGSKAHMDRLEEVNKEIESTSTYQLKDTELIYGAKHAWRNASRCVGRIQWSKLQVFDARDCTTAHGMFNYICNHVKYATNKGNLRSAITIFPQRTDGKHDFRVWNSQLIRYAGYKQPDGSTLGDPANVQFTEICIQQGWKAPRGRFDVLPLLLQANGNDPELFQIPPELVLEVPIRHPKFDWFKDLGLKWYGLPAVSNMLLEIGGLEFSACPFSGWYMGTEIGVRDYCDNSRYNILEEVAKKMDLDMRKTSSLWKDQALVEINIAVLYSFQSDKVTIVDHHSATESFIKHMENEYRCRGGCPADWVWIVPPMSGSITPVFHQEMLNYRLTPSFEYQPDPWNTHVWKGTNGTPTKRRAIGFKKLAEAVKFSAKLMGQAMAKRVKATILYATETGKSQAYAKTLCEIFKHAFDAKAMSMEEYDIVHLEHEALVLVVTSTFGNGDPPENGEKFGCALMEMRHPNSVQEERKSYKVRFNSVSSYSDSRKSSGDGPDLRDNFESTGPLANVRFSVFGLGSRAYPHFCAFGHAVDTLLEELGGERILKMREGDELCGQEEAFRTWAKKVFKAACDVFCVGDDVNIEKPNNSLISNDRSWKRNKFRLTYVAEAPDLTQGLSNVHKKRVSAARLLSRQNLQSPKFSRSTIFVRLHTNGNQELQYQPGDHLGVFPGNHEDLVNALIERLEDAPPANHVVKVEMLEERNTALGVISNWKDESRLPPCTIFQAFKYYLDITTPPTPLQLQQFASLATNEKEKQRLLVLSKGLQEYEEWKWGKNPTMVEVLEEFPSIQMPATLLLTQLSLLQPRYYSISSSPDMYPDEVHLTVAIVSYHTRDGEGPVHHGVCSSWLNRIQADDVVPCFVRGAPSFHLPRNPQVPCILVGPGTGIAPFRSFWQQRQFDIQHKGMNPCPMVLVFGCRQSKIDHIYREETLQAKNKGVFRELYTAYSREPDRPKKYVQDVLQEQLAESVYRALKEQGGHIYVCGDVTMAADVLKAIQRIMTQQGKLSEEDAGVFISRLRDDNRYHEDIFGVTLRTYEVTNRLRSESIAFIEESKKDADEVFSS
Sequence of Platelet-activating factor receptor (P25105 whole entry): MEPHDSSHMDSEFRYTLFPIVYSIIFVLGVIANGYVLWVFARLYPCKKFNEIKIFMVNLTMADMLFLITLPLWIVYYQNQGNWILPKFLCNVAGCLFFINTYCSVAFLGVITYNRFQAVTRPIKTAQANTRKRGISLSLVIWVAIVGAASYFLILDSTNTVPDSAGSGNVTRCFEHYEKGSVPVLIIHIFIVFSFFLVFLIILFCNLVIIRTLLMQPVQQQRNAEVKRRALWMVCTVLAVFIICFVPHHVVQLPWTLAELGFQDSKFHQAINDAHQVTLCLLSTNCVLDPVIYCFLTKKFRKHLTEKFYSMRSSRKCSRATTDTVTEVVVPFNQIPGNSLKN

On to `Nn1nnc2ccccc21`, for which the IC50 entry (in assay [1]; in assay [2]; on Glycine receptor; against Nitric oxide synthase 1; in assay [3]; in assay [4]) was “Not Active” each time. Also, the IC50 entry in assay [5] is “Not Active”. Further, in assay [1], the Ki result is on record as “Not Active”.
Consider `CC[C@]1(O)CC[C@H]2[C@@H]3CCC4=CCCC[C@@H]4[C@H]3CC[C@@]21C`, for which the IC50 result (in assay [1]; in assay [2]; against Glycine receptor; at Nitric oxide synthase 1; in assay [3]; in assay [4]) was “Not Active” throughout. In assay [5], the concentration for half-maximal inhibition (IC50) entry is “Not Active”. Moreover, in assay [1], the Ki result is reported as “Not Active”.
Regarding `N[C@@H](Cc1ccc(F)cc1)C(=O)O`, the IC50 result (in assay [1]; in assay [2]; against Glycine receptor; on Nitric oxide synthase 1; in assay [3]; in assay [4]) was “Not Active” each time. Besides, the IC50 result in assay [5] was “Not Active”. Moreover, the Ki result in assay [1] is “Not Active”.
`CCOC(=O)[C@H](CCc1ccccc1)N[C@@H](C)C(=O)N1Cc2ccccc2C[C@H]1C(=O)O`: the IC50 result (in assay [1]; in assay [2]; at Glycine receptor; against Nitric oxide synthase 1; in assay [3]; in assay [4]) was “Not Active” each time. The IC50 result in assay [5] is “Not Active”. Also, the Ki entry in assay [1] is “Not Active”.
Turning to `O=C(c1ccccc1Cl)N1CCC(Cc2ccccc2)CC1`, the concentration for half-maximal inhibition (IC50) entry (in assay [1]; in assay [2]; on Glycine receptor; at Nitric oxide synthase 1; in assay [3]; in assay [4]) was “Not Active” throughout. In assay [5], the IC50 result was “Not Active”. Moreover, in assay [1], the Ki entry is “Not Active”.
On to `CCOC(=O)[C@H](CCc1ccccc1)N[C@@H](C)C(=O)N1CCC[C@H]1C(=O)O`, for which the 50% inhibitory concentration (IC50) result (in assay [1]; in assay [2]; against Glycine receptor; against Nitric oxide synthase 1; in assay [3]; in assay [4]) was “Not Active” in each case. The IC50 result in assay [5] is reported as “Not Active”. In addition, the Ki result in assay [1] is “Not Active”.
With `C=C1/C(=C\C=C2/CCC[C@]3(C)[C@@H]([C@H](C)CCCC(C)C)CC[C@@H]23)C[C@@H](O)C[C@@H]1O` [ALFACALCIDOL], the IC50 result (in assay [1]; in assay [2]; against Glycine receptor; at Nitric oxide synthase 1; in assay [3]; in assay [4]) was “Not Active” throughout. The IC50 entry in assay [5] was “Not Active”. For the same compound, the Ki result in assay [1] is recorded as “Not Active”.
Turning to `CCCCCC[C@H]1C(=O)O[C@H](C)[C@H](NC(=O)c2cccc(NC=O)c2O)C(=O)O[C@@H](C)[C@@H]1OC(=O)CC(C)C` [ANTIMYCIN A], the IC50 result in assay [1] is “Not Active”; in assay [2], “Not Active”; against Glycine receptor, “Not Active”; against Nitric oxide synthase 1 it was “Not Active”; in assay [3], “Not Active”; in assay [4] (read-out: IC50), 2.12 µM. The IC50 entry in assay [5] was “Not Active”. The Ki result in assay [1] is “Not Active”.
Regarding `C[C@@H]1CC[C@H]2[C@@H](C)C(=O)O[C@@H]3O[C@@]4(C)CC[C@@H]1[C@]32OO4` [ARTEMISININ], the IC50 result (in assay [1]; in assay [2]; against Glycine receptor; against Nitric oxide synthase 1; in assay [3]; in assay [4]) was “Not Active” each time. For the same compound, the IC50 entry in assay [5] is reported as “Not Active”. The Ki entry in assay [1] is recorded as “Not Active”.
For the compound `CO[C@H]1[C@@H](O)[C@H](N)[C@@H](O[C@H]2O[C@H]([C@H](C)N)CC[C@H]2N)[C@H](O)[C@@H]1N(C)C(=O)CN` [ASTROMICIN], the IC50 entry (in assay [1]; in assay [2]; at Glycine receptor; at Nitric oxide synthase 1; in assay [3]; in assay [4]) was “Not Active” throughout. For the same compound, the IC50 result in assay [5] was “Not Active”. Further, in assay [1], the Ki result is reported as “Not Active”.
`[N-]=[N+]=CC(=O)OC[C@H](N)C(=O)O` [AZASERINE]: the IC50 result (in assay [1]; in assay [2]; on Glycine receptor; on Nitric oxide synthase 1; in assay [3]; in assay [4]) was “Not Active” in each case. Further, the IC50 result in assay [5] is reported as “Not Active”. For the same compound, the Ki result in assay [1] is recorded as “Not Active”.
As for `CC[C@H]1OC(=O)[C@H](C)[C@@H](O[C@H]2C[C@@](C)(OC)[C@@H](O)[C@H](C)O2)[C@H](C)[C@@H](O[C@@H]2O[C@H](C)C[C@H](N(C)C)[C@H]2O)[C@](C)(O)C[C@@H](C)CN(C)[C@H](C)[C@@H](O)[C@]1(C)O` [AZITHROMYCIN], the IC50 result (in assay [1]; in assay [2]; against Glycine receptor; on Nitric oxide synthase 1; in assay [3]; in assay [4]) was “Not Active” throughout. For the same compound, the IC50 result in assay [5] is “Not Active”. For the same compound, the Ki entry in assay [1] is given as “Not Active”.
Take `CC(C)(C)c1ccc(S(=O)(=O)/C=C/C#N)cc1` [BAY-11-7085]: the IC50 result (in assay [1]; in assay [2]; at Glycine receptor; against Nitric oxide synthase 1; in assay [3]; in assay [4]) was “Not Active” each time. For the same compound, the concentration for half-maximal inhibition (IC50) entry in assay [5] is “Not Active”. Further, in assay [1], the Ki result is listed as “Not Active”.
Regarding `CCc1oc2ccccc2c1C(=O)c1cc(Br)c(O)c(Br)c1` [BENZBROMARONE], the IC50 result is “Not Active” in assay [1]; “Not Active” in assay [2]; “Not Active” against Glycine receptor; “Not Active” at Nitric oxide synthase 1; “Not Active” in assay [3]; 1.95 µM in assay [4] (read-out: IC50). Also, in assay [5], the IC50 result is reported as “Not Active”. For the same compound, the Ki entry in assay [1] is on record as “Not Active”.
`O=c1cc(-c2ccccc2)oc2ccc3ccccc3c12` [BETA-NAPHTHOFLAVONE]: the 50% inhibitory concentration (IC50) result (in assay [1]; in assay [2]; against Glycine receptor; against Nitric oxide synthase 1; in assay [3]; in assay [4]) was “Not Active” throughout. Besides, the concentration for half-maximal inhibition (IC50) result in assay [5] is reported as “Not Active”. Also, the Ki result in assay [1] is listed as “Not Active”.
`CS(=O)(=O)OCCCCOS(C)(=O)=O` [BUSULFAN]: the IC50 entry (in assay [1]; in assay [2]; at Glycine receptor; on Nitric oxide synthase 1; in assay [3]; in assay [4]) was “Not Active” throughout. For the same compound, the 50% inhibitory concentration (IC50) entry in assay [5] is on record as “Not Active”. In addition, the Ki entry in assay [1] was “Not Active”.
Regarding `O=C(/C=C/c1ccc(O)c(O)c1)OCCc1ccccc1` [CAFFEIC ACID PHENETHYL ESTER], the concentration for half-maximal inhibition (IC50) entry was “Not Active” in assay [1]; “Not Active” in assay [2]; “Not Active” at Glycine receptor; “Not Active” on Nitric oxide synthase 1; “Not Active” in assay [3]; 0.686 µM in assay [4] (read-out: IC50). For the same compound, in assay [5], the IC50 entry is recorded as “Not Active”. The Ki result in assay [1] was “Not Active”.
As for `Cc1cnc(C(=O)NCCc2ccc(S(=O)(=O)NC(=O)NC3CCCCC3)cc2)cn1` [GLIPIZIDE], the IC50 entry (in assay [1]; in assay [2]; on Glycine receptor; against Nitric oxide synthase 1; in assay [3]; in assay [5]) was “Not Active” each time. Further, the Ki entry in assay [1] is reported as “Not Active”.
